Assay results as given in patent publication US20240090503A1, “FUNGICIDAL OXADIAZOLES AND THEIR MIXTURES” (FMC CORPORATION, priority 2020, published 2024).

What was measured:
[1] = test system: Phakopsora pachyrhizi (the causal agent of Asian soybean rust); assay: Test A: preventive spray on soybean seedlings, Asian soybean rust, visual disease rating; format: in vivo; details: soybean seedlings
Source text: (§1) General protocol for preparing test suspensions for Tests A-D: the test compounds were first dissolved in acetone in an amount equal to 3% of the final volume and then suspended at the desired concentration (in ppm) in acetone and purified water (50/50 mix by volume) containing 250 ppm of the surfactant PEG400 (polyhydric alcohol esters). The resulting test suspensions were then used in Tests A-D.
(§2) The test suspension was sprayed to the point of run-off on soybean seedlings. The following day the seedlings were inoculated with a spore suspension of Phakopsora pachyrhizi (the causal agent of Asian soybean rust) and incubated in a saturated atmosphere at 22° C. for 24 h and then moved to a growth chamber at 22° C. for 8 days, after which time visual disease ratings were made.
(§3) The test results for Tests A-C presented in Table A below for compounds of Formula 1 illustrate the fungicidal activity of component (a) contributing to the plant disease control utility of compositions comprising component (a) in combination with component (b) according to the present invention. In the Table, a rating of 100 indicates 100% disease control and a rating of 0 indicates no disease control (relative to the controls). A dash (-) indicates the compound was not tested. The test suspensions were sprayed at the concentration listed in the column “Rate in ppm”, unless otherwise indicated. An asterisk “*” next to the rating indicates a 250 ppm test suspension was used, a double asterisk “**” next to the rating indicates a 100 ppm test suspension was used, and a triple asterisk “***” next to the rating indicates a 50 ppm test suspension was used.

[2] = test system: Puccinia recondita f. sp. tritici (the causal agent of wheat leaf rust); assay: Test C: preventive spray on wheat seedlings, wheat leaf rust, visual disease rating; format: in vivo; details: wheat seedlings
Source text: as §1
as §2, with “on wheat” for “on soybean”, “of Puccinia recondita f. sp. tritici;” for “of Phakopsora pachyrhizi”, “of wheat leaf” for “of Asian soybean”, “at 20°” for “at 22°”, “24 h,” for “24 h”, “for 6” for “for 8”
as §3

[3] = test suspension 10 ppm, 100 = 100% disease control, 0 = no control
[4] = 10 ppm test suspension, 100 = 100% disease control, 0 = no control
[5] = 50 ppm test suspension, 100 = 100% disease control, 0 = no control

Row | Compound | Test A disease control rating [1, 3] | Test C disease control rating ([2]; test suspension 10 ppm) | further results
1 | CCOC(=O)c1cnn(Cc2ccc(-c3noc(C(F)(F)F)n3)cc2F)c1 [compound 304] | 100% | 100% | 
2 | FC(F)(F)c1nc(-c2ccc(Cn3ccc4ncccc43)cc2)no1 [Compound 136, 1-[[4-[5-(trifluoromethyl)-1,2,4-oxadiazol-3-yl]phenyl]methyl]-1H-pyrrolo[3,2-b]pyridine] |  |  | pest or weed control at 10 µg/mL ([1]; Phakopsora pachyrhizi, 216 h, test suspension 10 ppm, 100 = 100% disease control, 0 = no control, read-out: Test A disease control rating): 100%; pest or weed control at 10 µg/mL ([2]; Puccinia recondita, 168 h, test suspension 10 ppm, read-out: Test C disease control rating): 68%
3 | O=C(O)C1=NOC(Cc2ccc(-c3noc(C(F)(F)F)n3)s2)C1 (stereo not drawn) [compound 367] |  |  | Test A disease control rating ([1]; test suspension 50 ppm): 96%; Test C disease control rating ([2]; test suspension 50 ppm): 67%
4 | CCCOC(=O)c1cnn(Cc2cc(-c3noc(C(F)(F)F)n3)cs2)c1 [compound 250] | 100% | 74% | 
5 | CON=C(COC(=O)c1cnn(Cc2ccc(-c3noc(C(F)(F)F)n3)cc2)c1)c1ccccc1 [compound 245] | 100% | 86% | 
6 | Cc1nn(Cc2ccc(-c3noc(C(F)(F)F)n3)cc2)c2cccc(Br)c12 [compound 34] | 71% | 55% | 
7 | CNC(=O)c1cnn(CCCc2ccc(-c3noc(C(F)(F)F)n3)cc2)c1 [compound 415] |  |  | Test A disease control rating [1, 4]: 100%; Test C disease control rating [2, 4]: 96%
8 | CN(C)C(=O)c1cnn(Cc2ccc(-c3noc(C(F)(F)F)n3)cc2)c1 [compound 62] | 100% | 100% | 
9 | COC(=O)c1ccc2cnn(Cc3ccc(-c4noc(C(F)(F)F)n4)cc3)c2c1 [compound 41] | 100% | 98% | 
10 | CSc1nnn(Cc2ccc(-c3noc(C(F)(F)F)n3)cc2)c1C [compound 40] | 100% | 92% | 
11 | C=CCOC(=O)c1cnn(Cc2cc(OC)c(-c3noc(C(F)(F)F)n3)s2)c1 [compound 440] |  |  | Test A disease control rating [1, 4]: 0%; Test C disease control rating [2, 4]: 0%
12 | Cc1ccc(F)cc1OCc1ccc(-c2noc(C(F)(F)F)n2)s1 [compound 375] | 100% | 98% | 
13 | N#Cc1cccn(Cc2ccc(-c3noc(C(F)(F)F)n3)cc2)c1=O [compound 417] |  |  | Test A disease control rating [1, 4]: 100%; Test C disease control rating [2, 4]: 100%
14 | CCCCOC(=O)c1cnn(Cc2ccc(-c3noc(C(F)(F)F)n3)cc2)c1 [compound 410] |  |  | Test A disease control rating [1, 4]: 100%; Test C disease control rating [2, 4]: 100%
15 | CCOC(=O)c1nn(Cc2ccc(-c3noc(C(F)(F)F)n3)cc2)c(C(=O)OCC)c1C(=O)OCC [compound 174] | 85% | 91% | 
16 | COC(=O)c1cccc2c1cnn2Cc1ccc(-c2noc(C(F)(F)F)n2)cc1 [compound 341] | 100% | 100% | 
17 | CCOC(=O)c1cc(C(C)C)n(Cc2ccc(-c3noc(C(F)(F)F)n3)cc2)n1 [compound 80] | 100% | 68% | 
18 | CCCOC(=O)c1cnn(Cc2cc(OC)c(-c3noc(C(F)(F)F)n3)s2)c1 [compound 439] |  |  | Test A disease control rating [1, 4]: 0%; Test C disease control rating [2, 4]: 0%
19 | CS(=O)(=O)Nc1cnn(Cc2ccc(-c3noc(C(F)(F)F)n3)cc2)c1 [compound 442] |  |  | Test A disease control rating [1, 4]: 44%; Test C disease control rating [2, 4]: 0%
20 | FC(F)(F)c1nc(-c2ccc(Cn3cc4c(I)cc(Cl)cc4n3)cc2)no1 [compound 38] | 78% | 68% | 
21 | CCC(C)OC(=O)c1cnn(Cc2ccc(-c3noc(C(F)(F)F)n3)cc2)c1 (stereo not drawn) [compound 481] |  |  | Test A disease control rating [1, 4]: 100%; Test C disease control rating [2, 4]: 100%
22 | CCOC(=O)c1cnn(Cc2ccc3cc(-c4noc(C(F)(F)F)n4)ccc3c2)c1 [compound 457] |  |  | Test A disease control rating [1, 5]: 77%; Test C disease control rating [2, 5]: 0%
23 | Cc1nn(Cc2ccc(-c3noc(C(F)(F)F)n3)cc2)c2ccc(Br)cc12 [compound 51] | 99% | 68% | 
24 | CCOC(=O)c1cc(C(C)(C)C)n(Cc2ccc(-c3noc(C(F)(F)F)n3)cc2)n1 [compound 187] | 0% | 0% | 

Row | Compound | Test A disease control rating [1, 3] | Test C disease control rating ([2]; test suspension 10 ppm) | further results
25 | CCOC(=O)C1(Cc2ccc(-c3noc(C(F)(F)F)n3)cc2)CCCNC1=O (stereo not drawn) [compound 432] |  |  | Test A disease control rating [1, 5]: 100%; Test C disease control rating [2, 5]: 92%
26 | Cc1cc2c(cnn2Cc2ccc(-c3noc(C(F)(F)F)n3)cc2)cc1Br [compound 32] | 96% | 68% | 
27 | CCOC(=O)c1cc(C(=O)OCC)n(Cc2ccc(-c3noc(C(F)(F)F)n3)cc2)n1 [compound 154] |  |  | Test A disease control rating ([1]; test suspension 50 ppm): 100%; Test C disease control rating ([2]; test suspension 50 ppm): 100%
28 | CC(COC(=O)c1cnn(Cc2ccc(-c3noc(C(F)(F)F)n3)cc2)c1)=NOC(C)C [compound 222] | 100% | 97% | 
29 | N#Cc1cccc2nn(Cc3ccc(-c4noc(C(F)(F)F)n4)cc3)cc12 [compound 107] | 100% | 90% | 
30 | O=C(NCc1cccnc1)c1cnn(Cc2ccc(-c3noc(C(F)(F)F)n3)cc2)c1 [compound 483] |  |  | Test A disease control rating [1, 4]: 100%; Test C disease control rating [2, 4]: 54%
31 | Cc1ccc(C(O)c2ccc(-c3noc(C(F)(F)F)n3)cc2)cc1 (stereo not drawn) [compound 501] |  |  | Test A disease control rating [1, 4]: 100%; Test C disease control rating [2, 4]: 0%
32 | CCOC(=O)c1cnn(CSCc2ccc(-c3noc(C(F)(F)F)n3)cc2)c1 [compound 241] | 100% | 100% | 
33 | C=CCON=Cc1cnn(Cc2ccc(-c3noc(C(F)(F)F)n3)cc2)c1 [compound 386] |  |  | Test A disease control rating [1, 4]: 100%; Test C disease control rating [2, 4]: 100%
34 | CSCC(=O)COC(=O)c1cnn(Cc2ccc(-c3noc(C(F)(F)F)n3)cc2)c1 [compound 434] |  |  | Test A disease control rating [1, 4]: 100%; Test C disease control rating [2, 4]: 98%
35 | CON(C)C(=O)c1nn(Cc2ccc(-c3noc(C(F)(F)F)n3)cc2)c2ccccc12 [compound 43] | 100% | 96% | 
36 | O=C1N(Cc2ccc(-c3noc(C(F)(F)F)n3)cc2)CCc2cncn21 [compound 462] |  |  | Test A disease control rating [1, 4]: 100%; Test C disease control rating [2, 4]: 89%
37 | Nc1ccc2c(cnn2Cc2ccc(-c3noc(C(F)(F)F)n3)cc2)c1 [compound 115] | 98% | 95% | 
38 | CCOC(=O)c1cncn(Cc2ccc(-c3noc(C(F)(F)F)n3)cc2)c1=O [compound 418] |  |  | Test A disease control rating [1, 4]: 100%; Test C disease control rating [2, 4]: 99%
39 | FC(F)(F)c1nc(-c2ccc(Cn3ncc4cnc(Cl)nc43)cc2)no1 [compound 152] | 100% | 100% | 
40 | Cn1c(C(F)(F)F)nn(Cc2ccc(-c3noc(C(F)(F)F)n3)cc2)c1=O [compound 267] |  |  | Test A disease control rating ([1]; test suspension 50 ppm): 99%; Test C disease control rating ([2]; test suspension 50 ppm): 74%
41 | COc1ccc2c(cnn2Cc2ccc(-c3noc(C(F)(F)F)n3)cc2)c1 [compound 126] |  |  | Test A disease control rating ([1]; test suspension 260 ppm): 100%; Test C disease control rating ([2]; test suspension 260 ppm): 100%
42 | FC(F)(F)c1nc(-c2ccc(CCCn3ccc(-c4ccccc4)n3)cc2)no1 [compound 360] | 100% | 68% | 
43 | N#CC1(NC(=O)c2cnn(Cc3ccc(-c4noc(C(F)(F)F)n4)cc3)c2)CC1 [compound 173] | 100% | 96% | 
44 | CC(=O)NN=Cc1cnn(Cc2ccc(-c3noc(C(F)(F)F)n3)cc2)c1 [compound 389] |  |  | Test A disease control rating [1, 4]: 100%; Test C disease control rating [2, 4]: 100%
45 | COC(=O)C=CCOC(=O)c1cnn(Cc2ccc(-c3noc(C(F)(F)F)n3)cc2)c1 [compound 275] | 100% | 100% | 
46 | COC(=O)c1ccc2nn(Cc3ccc(-c4noc(C(F)(F)F)n4)cc3)cc2c1 [compound 35] | 100% | 98% | 
47 | COC(=O)c1c2ccccc2nn1Cc1ccc(-c2noc(C(F)(F)F)n2)cc1 [compound 141] | 100% | 88% | 
48 | CCON=C(C)COC(=O)c1cnn(Cc2ccc(-c3noc(C(F)(F)F)n3)cc2)c1 [compound 221] | 100% | 95% | 
